Test results reported in patent US5721207A, “Method for treatment of pain” (Innapharma, Inc., priority 1995, dated 1998).
Read-outs that look alike come from different tables or passages of the source. Ends that are not written are not given here.

Columns and labels:
[1] = epidural administration; cited from earlier work

Protocol for rat: Intrathecal catheters were surgically implanted in the rats after application of anesthetic (Nembutal, 30 mg/kg, intraperitoneal) 5-7 days prior to the test procedure. The 5-7 day period prior to testing allowed for full recovery from the surgical procedures. […] Each catheter was anchored to the skull with cyanoacrylate adhesive, and the skull was closed with wound clips. The free end of each catheter was heat annealed; when compositions were to be injected via the intrathecal route each composition was introduced therein using a Hamilton needle inserted into the sealed catheter.
Pain sensitivity was assessed using a standard analgesiometric hot plate test (Woolfe and MacDonald (1944) J. Pharmacol. Exp. Ther. 80:300). The hot plate response was determined by placing a rat on a 55° C. copper hot plate enclosed in a plexiglass cylinder.
Because of the technical demands of these experiments, no more than 8-9 rats were tested on a given day. Sufficient animals were studied to obtain 10-11 evaluable rats per test condition. On the study day, animals were tested for baseline hot plate responses, and then received bolus injections of test analgesic or physiological saline (control). Hot plate responses were assessed again at 15 min, 30 min, 1 hr, 3 hr, 6 hr and 24 hr after intrathecal injection of test compound or vehicle control.
Ninety-six (96) rats, ranging in weight from 320 g to 420 g, were used in this study. Catheters were implanted and recovery was allowed for as described hereinabove. […] Drug or saline vehicle doses were administered using Hamilton needles inserted into the catheters, with a dose volumes of 37.5 μL/kg followed by a 10 μL saline catheter wash-out. Baseline (pre-drug) and responses at 15 min, 30 min, 1 hr, 3 hr, 6 hr and 24 hr after drug or vehicle injection were determined.

## CN1CC[C@]23c4c5ccc(O)c4O[C@H]2[C@@H](O)C=C[C@H]3[C@H]1C5.O=S(=O)(O)O [Morphine, Morphine sulfate]
rat; 37.5 μg/kg (49.42 nmol/kg) intrathecal single, 0 hr (baseline)
  Hot Plate Latency (Mean ± SEM): 12.81 ± 1.23 s
rat; 37.5 μg/kg (49.42 nmol/kg) intrathecal single, 0.25 hr
  Hot Plate Latency (Mean ± SEM): 22.08 ± 2.68 s
rat; 37.5 μg/kg (49.42 nmol/kg) intrathecal single, 0.5 hr
  Hot Plate Latency (Mean ± SEM): 20.97 ± 2.56 s
rat; 37.5 μg/kg (49.42 nmol/kg) intrathecal single, 1 hr
  Hot Plate Latency (Mean ± SEM): 21.81 ± 2.46 s
rat; 37.5 μg/kg (49.42 nmol/kg) intrathecal single, 3 hr
  Hot Plate Latency (Mean ± SEM): 19.97 ± 2.05 s
rat; 37.5 μg/kg (49.42 nmol/kg) intrathecal single, 6 hr
  Hot Plate Latency (Mean ± SEM): 14.02 s
rat; 37.5 μg/kg (49.42 nmol/kg) intrathecal single, 24 hr
  Hot Plate Latency (Mean ± SEM): 11.33 ± 1.51 s
rat; 75.0 μg/kg (98.84 nmol/kg) intrathecal single, 0 hr (baseline)
  Hot Plate Latency (Mean ± SEM): 13.76 ± 1.27 s
rat; 75.0 μg/kg (98.84 nmol/kg) intrathecal single, 0.25 hr
  Hot Plate Latency (Mean ± SEM): 22.76 ± 2.43 s
rat; 75.0 μg/kg (98.84 nmol/kg) intrathecal single, 0.5 hr
  Hot Plate Latency (Mean ± SEM): 21.86 ± 2.25 s
rat; 75.0 μg/kg (98.84 nmol/kg) intrathecal single, 1 hr
  Hot Plate Latency (Mean ± SEM): 19.88 ± 2.04 s
rat; 75.0 μg/kg (98.84 nmol/kg) intrathecal single, 3 hr
  Hot Plate Latency (Mean ± SEM): 17.42 ± 1.93 s
rat; 75.0 μg/kg (98.84 nmol/kg) intrathecal single, 6 hr
  Hot Plate Latency (Mean ± SEM): 17.66 s
rat; 75.0 μg/kg (98.84 nmol/kg) intrathecal single, 24 hr
  Hot Plate Latency (Mean ± SEM): 12.60 ± 1.19 s
rat; 125.0 μg/kg (164.73 nmol/kg) intrathecal single, 0 hr (baseline)
  Hot Plate Latency (Mean ± SEM): 13.28 ± 1.35 s
rat; 125.0 μg/kg (164.73 nmol/kg) intrathecal single, 0.25 hr
  Hot Plate Latency (Mean ± SEM): 19.4 ± 1.6 s
rat; 125.0 μg/kg (164.73 nmol/kg) intrathecal single, 0.5 hr
  Hot Plate Latency (Mean ± SEM): 26.36 ± 4.20 s
rat; 125.0 μg/kg (164.73 nmol/kg) intrathecal single, 1 hr
  Hot Plate Latency (Mean ± SEM): 26.83 ± 3.04 s
rat; 125.0 μg/kg (164.73 nmol/kg) intrathecal single, 3 hr
  Hot Plate Latency (Mean ± SEM): 21.69 ± 3.62 s
rat; 125.0 μg/kg (164.73 nmol/kg) intrathecal single, 6 hr
  Hot Plate Latency (Mean ± SEM): 15.86 s
rat; 125.0 μg/kg (164.73 nmol/kg) intrathecal single, 24 hr
  Hot Plate Latency (Mean ± SEM): 13.49 s
rat; intrathecal, all tested doses
  onset of antinociception/analgesia post-injection: ≤ 15 min
rat; intrathecal, all three doses (37.5, 75.0, 125.0 μg/kg)
  dose relation of hot plate latency: increased hot plate latency in a dose-related fashion
rat; intrathecal, doses used in this study
  peak levels of analgesia compared with elcatonin: generally lower
rat; intrathecal, post-injection, particularly lower doses
  time of return toward baseline hot plate scores: ≤ 6 h

## salmon calcitonin: salmon calcitonin, sequence given as SEQ ID No 4 (CSNLSTCVLGKLSQELHKLQTYPRTNTGSGTP; ends and bridges not checked; cysteine pairing not given here)
[1]
  use as an analgesic in intractable pain: the data did not appear to support its use as an analgesic
